The values below come from US8524729B2, “Cinnamoyl derivatives and use thereof” (Sumitomo Chemical Company, Limited, priority 2003, dated 2013).

The assay can be described thus: Inhibition of the ability of TGF-β to promote transcription of a Type I collagen gene, COL-Luc luciferase reporter in normal human fetal skin fibroblasts. The class given is cell-based. The conditions noted are these: final concentration 1 μM; TGF-β added after one hour; 40 hours; normal human fetal skin fibroblast transfected with COL-Luc and pCMV-β-gal; read-out: Inhibition percentage. On the procedure:
1×10^8 cells of a normal human fetal skin fibroblast (Clontech, catalogue No. CC-2509) were cultured at 37° C. overnight under 5% CO2 atmosphere. After the cultured cells were washed with a sodium phosphate buffer (hereinafter, referred to as PBS) twice, 3 ml of PBS was added thereto and the cells were scraped away the wall of a vessel using a cell scraper (Nalgen, catalogue No. 179693). The scraped cells were collected by centrifugation (1,500 rpm, 4° C., 15 min), and these were suspended in 20 ml of PBS and centrifuged again. To the resulting precipitates were added 11 ml of Solution 2 and 4.8 μl of pronase of DNA Extraction Kit (Stratagene, catalogue No. 200600). After shaken at 60° C. for 1 hour, the resulting mixture was allowed to stand in ice for 10 minutes. Then, 4 ml of Solution 3 of the kit was added to the mixture. After mixed, the mixture was allowed to stand in ice for 5 minutes and then centrifuged (3,000 rpm, 4° C., 15 min) to recover a supernatant. To the recovered supernatant was added 2 μl of RNase per 1 ml of the supernatant and the mixture was allowed to stand at 37° C. for 15 minutes. To the mixture was added 2-fold volume of ethanol. After mixed, a white thread-like substance (genomic DNA) appeared and the substance was recovered. The recovered genomic DNA was washed with 70% ethanol and then air-dried. The air-dried genomic DNA was dissolved in 500 μl of 10 mM Tris-HCl, 1 mM EDTA (pH 8.0) (hereinafter, referred to as TE).
The resulting genomic DNA solution (the amount equivalent to 1 μg of genomic DNA), each 1 μl ([…]) of an oligonucleotide consisting of the nucleotide sequence represented by SEQ ID No:1 and an oligonucleotide consisting of the nucleotide sequence represented by SEQ ID No: 2, 29 μL of distilled water, 5 μl of the buffer attached to TaKaRa LA Taq (TAKARA SHUZO, catalogue No. RR002A), 5 μL of a Mg^2+ solution, 5 μL of a dNTP mixture and 0.5 μl of TaKaRa LA Taq (TAKARA SHUZO, catalogue No. RR002A) were mixed. After the resulting mixed solution was incubated at 94° C. for 5 minutes, the mixed solution was subjected to 30 cycles, in which one cycle consists of incubation at 94° C. for 1 minute, at 60° C. for 1 minute and then at 72° C. for 1 minute. The mixed solution was electrophoresed on a 2% agarose gel to recover about 0.5 kb of a DNA. The recovered DNA was treated with phenol/chloroform and then precipitated with ethanol to recover the DNA. The resulting DNA was dissolved in ultrapure water. To this solution were added 2.5 μl of NheI and 2.5 μl of HindIII, and then incubated at 37° C. for 3 hours. Then, the solution was electrophoresed on a 2% agarose gel to recover […] of a DNA. The recovered DNA was precipitated with ethanol to recover again the DNA (hereinafter, referred to as the collagen promoter DNA). […]
On to `COC1=C(C(=O)C=Cc2ccc(OC(F)(F)F)c(Cl)c2)COC(C)=C1` [Compound No. (2a-17), 4-methoxy-3-[3-[3-chloro-4-(trifluoromethoxy)phenyl]-1-oxo-2-propenyl]-6-methyl-2H-pyran], for which the inhibition at 1 µM is at least 70%. `COc1c(C(=O)C=Cc2ccc(OC(F)(F)F)c(Cl)c2)c(=O)oc2ccccc12` [Compound No. (2c-17), 4-methoxy-3-[3-[3-chloro-4-(trifluoromethoxy)phenyl]-1-oxo-2-propenyl]-2H-1-benzopyran-2-one]: the inhibition at 1 µM is at least 70%.

Regarding `Cc1cc(O)c(C(=O)C=Cc2ccc(OC(F)(F)F)c(Cl)c2)c(=O)[nH]1` [Compound No. (3a-32), 4-hydroxy-3-[3-[3-chloro-4-(trifluoromethoxy)phenyl]-1-oxo-2-propenyl]-6-methyl-2(1H)-pyridinone], the inhibition at 1 µM was at least 70%. Take `O=C(C=Cc1ccc(OC(F)(F)F)c(Cl)c1)c1c(O)c2ccccc2[nH]c1=O` [Compound No. (3c-32), 4-hydroxy-3-[3-[3-chloro-4-(trifluoromethoxy)phenyl]-1-oxo-2-propenyl]-2(1H)-quinolinone]: the inhibition at 1 µM is at least 70%.
